# Earlier results as cited in article PMC7992119 (Structure (London, England : 1993), 2019).
# Where no end group is shown, it is not given here. The star is where a group is joined. Octanoyl = CCCCCCCC(=O)*
# Assays:
# [1] = system: GHSR; conditions: ref Bednarek et al., 2000
# [2] = system: ET-B; conditions: mutation of known crystal contacts; ref Shihoya et al., 2016
# [3] = system: GHSR
substance,measurement,setting,value
des-acyl ghrelin,activity at GHSR of des-acyl versus lipidated form,[1],only the lipidated form is active at GHSR
endothelin-1,maximal decrease of binding,[2],≤ 10 fold
"ghrelin: 28-amino acid peptide with n-octanoylation at its Ser^3 residue (GSS(Octanoyl)FLSPEHQRVQQRKESKKPPAKLQPR; UniProt Q9UBU3 24-51, looked up)",affinity of the C terminus for the receptor,"[3]; C terminus of ghrelin (beyond residue 17), ref Bednarek et al., 2000",the C terminus has no affinity for the receptor and does not enhance ligand binding over truncated variants
same,affinity to GHSR versus the membrane,"[3]; qualitative statement, no reference given",much higher than to the membrane
